Consider 23 molecules from PubChem BioAssay AID248 (DTP/NCI, 2004).

Several values for one entry are separate records, joined by “and”; a condition that tells them apart may be missing. Equal values may be shown once. Inconclusive results and toxic doses are left out.

The assay concerns L1210 leukemia ip in BDF1 mice, survival T/C. Briefly: NCI In Vivo Anticancer Drug Screen. Data for tumor model L1210 Leukemia (intraperitoneal) in B6D2F1 (BDF1) mice. Conditions: endpoint: mean survival time, higher = longer survival. In outline: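 Read-out is survival time, reported as the treated-group measurement over the vehicle-control measurement.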
Setting [1] is: dose: 75.0 mg/kg/injection, schedule: Q01DX001 (ip), vehicle: saline.
[2] abbreviates: dose: 150.0 mg/kg/injection, schedule: Q01DX001 (ip), vehicle: saline.
Where [3] appears, read: dose: 300.0 mg/kg/injection, schedule: Q01DX001 (ip), vehicle: saline.
Where [4] appears, read: dose: 100.0 mg/kg/injection, schedule: Q04DX003 (ip), vehicle: Klucel (hydroxypropylcellulose) (HPC).
The mark [5] stands for this setting: dose: 200.0 mg/kg/injection, schedule: Q04DX003 (ip), vehicle: Klucel (hydroxypropylcellulose) (HPC).
Where [6] appears, read: dose: 400.0 mg/kg/injection, schedule: Q04DX003 (ip), vehicle: Klucel (hydroxypropylcellulose) (HPC).
Where [7] appears, read: dose: 100.0 mg/kg/injection, schedule: Q04DX003 (ip), vehicle: saline with Tween-80.
Setting [8] is: dose: 200.0 mg/kg/injection, schedule: Q04DX003 (ip), vehicle: saline with Tween-80.
[9] abbreviates: dose: 400.0 mg/kg/injection, schedule: Q04DX003 (ip), vehicle: saline with Tween-80.
The mark [10] stands for this setting: dose: 100.0 mg/kg/injection, schedule: Q01DX001 (ip), vehicle: carboxymethylcellulose (CMC).
Setting [11] is: dose: 200.0 mg/kg/injection, schedule: Q01DX001 (ip), vehicle: carboxymethylcellulose (CMC).
Where [12] appears, read: dose: 400.0 mg/kg/injection, schedule: Q01DX001 (ip), vehicle: carboxymethylcellulose (CMC).
[13] abbreviates: dose: 100.0 mg/kg/injection, schedule: Q01DX001 (ip), vehicle: saline.
Where [14] appears, read: dose: 200.0 mg/kg/injection, schedule: Q01DX001 (ip), vehicle: saline.
[15] abbreviates: dose: 400.0 mg/kg/injection, schedule: Q01DX001 (ip), vehicle: saline.

For `O=C1OC(=O)C2C1C1C3C=CC3C1C21C=C1` (stereo unspecified), the T/C is 100 % of control (dose: 100.0 mg/kg/injection, schedule: Q01DX009 (ip), vehicle: other); 96 % of control (dose: 100.0 mg/kg/injection, schedule: Q04DX003 (ip), vehicle: saline); 109 % of control (dose: 200.0 mg/kg/injection, schedule: Q01DX009 (ip), vehicle: other); 93 % of control (dose: 200.0 mg/kg/injection, schedule: Q04DX003 (ip), vehicle: saline); 110 % of control (dose: 400.0 mg/kg/injection, schedule: Q01DX009 (ip), vehicle: other); 100 % of control (dose: 400.0 mg/kg/injection, schedule: Q04DX003 (ip), vehicle: saline).

`O=C1Nc2ccccc2C1(O)c1ccccc1` (stereo unspecified): the T/C runs as follows: under setting [1], 103 % of control; under setting [2], 101 % of control; under setting [3], 92 % of control.

For `C[n+]1ccc(C(=O)c2ccccc2)cc1`, the T/C runs as follows: under setting [1], 94 % of control; under setting [2], 101 % of control.

Regarding `CN(C)/C=C1\CCOC1=O`, the T/C is, setting by setting: (dose: 100.0 mg/kg/injection, schedule: Q04DX002 (ip), vehicle: saline) 101 % of control; (dose: 200.0 mg/kg/injection, schedule: Q04DX002 (ip), vehicle: saline) 119 % of control.

For the molecule `O=C(CC(O)(C(F)(F)F)C(F)(F)F)c1cccc2ccccc12`, the T/C was 97 % of control under setting [4], 90 % of control under setting [5] and 90 % of control under setting [6].

For `CC(=O)Nc1ccc(S(=O)(=O)OCCC#N)cc1`, the T/C runs as follows: under setting [7], 99 % of control; under setting [8], 99 % of control; under setting [9], 90 % of control.

As to `Nc1cc2c(cc1Br)-c1cc(Br)c(N)cc1C2=O`, the T/C under setting [10] is 98 % of control, the T/C under setting [11] was 98 % of control and the T/C under setting [12] was 102 % of control.

As for `NC(=O)c1nn(C2OC(CO)C(O)C2O)c2ncnc(N)c12` (stereo unspecified), the T/C reads like this: (dose: 50.0 mg/kg/injection, schedule: Q01DX005 (ip), vehicle: saline) 236 % of control; (dose: 100.0 mg/kg/injection, schedule: Q01DX005 (ip), vehicle: saline) 258 % of control; (dose: 200.0 mg/kg/injection, schedule: Q01DX005 (ip), vehicle: saline) 236 % of control.

`Cc1ccc(S(=O)(=O)NC(CCl)=NCC23CC4CC(CC(C4)C2)C3)cc1`: the T/C was 113 % of control (dose: 31.3 mg/kg/injection, schedule: Q04DX002 (ip), vehicle: Klucel (hydroxypropylcellulose) (HPC)); 94 % of control (dose: 62.5 mg/kg/injection, schedule: Q04DX002 (ip), vehicle: Klucel (hydroxypropylcellulose) (HPC)); 94 % of control (dose: 125.0 mg/kg/injection, schedule: Q04DX002 (ip), vehicle: Klucel (hydroxypropylcellulose) (HPC)).

`CC(=O)Nc1ccc(NC(=O)c2cccc(F)c2)cc1`: the T/C runs as follows: (dose: 100.0 mg/kg/injection, schedule: Q01DX009 (ip), vehicle: Klucel (hydroxypropylcellulose) (HPC)) 86 % of control; (dose: 200.0 mg/kg/injection, schedule: Q01DX009 (ip), vehicle: Klucel (hydroxypropylcellulose) (HPC)) 102 % of control; (dose: 400.0 mg/kg/injection, schedule: Q01DX009 (ip), vehicle: Klucel (hydroxypropylcellulose) (HPC)) 91 % of control.

As to `CN1CC2C3C=CC(C3)C2C1` (stereo unspecified), the T/C (dose: 75.0 mg/kg/injection, schedule: Q01DX001 (ip), vehicle: other) is 96 % of control and the T/C (dose: 150.0 mg/kg/injection, schedule: Q01DX001 (ip), vehicle: other) was 88 % of control.

`CCCP(C)(=S)CCC`: the T/C runs as follows: (dose: 25.0 mg/kg/injection, schedule: Q04DX002 (ip), vehicle: Klucel (hydroxypropylcellulose) (HPC)) 112 % of control; (dose: 50.0 mg/kg/injection, schedule: Q04DX002 (ip), vehicle: Klucel (hydroxypropylcellulose) (HPC)) 108 % of control; (dose: 100.0 mg/kg/injection, schedule: Q04DX002 (ip), vehicle: Klucel (hydroxypropylcellulose) (HPC)) 112 % of control.

As for `S=C(c1cccs1)N1CCN(c2ccccc2)CC1`, the T/C was 97 % of control under setting [13], 95 % of control under setting [14] and 97 % of control under setting [15].

`O=S(=O)(Oc1ccc(Cl)cc1Cl)c1ccc(Cl)cc1`: the T/C was 93 % of control (dose: 75.0 mg/kg/injection, schedule: Q04DX003 (ip), vehicle: Klucel (hydroxypropylcellulose) (HPC)); 101 % of control (dose: 150.0 mg/kg/injection, schedule: Q04DX003 (ip), vehicle: Klucel (hydroxypropylcellulose) (HPC)); 90 % of control (dose: 300.0 mg/kg/injection, schedule: Q04DX003 (ip), vehicle: Klucel (hydroxypropylcellulose) (HPC)).

As to `CC(O)CNC(=O)C(C)(C)O` (stereo unspecified), the T/C (dose: 100.0 mg/kg/injection, schedule: Q01DX009 (ip), vehicle: saline) is 96 % of control; the T/C (dose: 200.0 mg/kg/injection, schedule: Q01DX009 (ip), vehicle: saline) is 96 % of control; the T/C (dose: 400.0 mg/kg/injection, schedule: Q01DX009 (ip), vehicle: saline) was 94 % of control.

For the molecule `CN=C(c1ccc(NC(=O)c2ccc(C(=O)Nc3ccc(C(=NC)N(C)C(C)=O)cc3)c(Cl)c2)cc1)N(C)C(C)=O`, the T/C reads like this: (dose: 25.0 mg/kg/injection, schedule: Q01DX015 (ip), vehicle: methylcellulose (MC)) 95 % of control; (dose: 50.0 mg/kg/injection, schedule: Q01DX015 (ip), vehicle: methylcellulose (MC)) 93 % of control; (dose: 75.0 mg/kg/injection, schedule: Q01DX015 (ip), vehicle: methylcellulose (MC)) 96 % of control; (dose: 200.0 mg/kg/injection, schedule: Q01DX015 (ip), vehicle: methylcellulose (MC)) 93 % of control.

As for `COC(CN(C)Cc1ccccc1)OC`, the T/C runs as follows: under setting [1], 107 % of control; under setting [2], 104 % of control; under setting [3], 102 % of control.

Regarding `N#Cc1ccc(N2CCCc3ccccc32)c([N+](=O)[O-])c1`, the T/C was 107 % of control under setting [4], 92 % of control under setting [5] and 91 % of control under setting [6].

Turning to `NNc1ncnc(SCc2ccccc2)c1N`, the T/C reads like this: (dose: 50.0 mg/kg/injection, schedule: Q01DX001 (ip), vehicle: carboxymethylcellulose (CMC)) 93 % of control; under setting [10], 98 % of control; under setting [11], 89 % of control; under setting [12], 89 % of control.

Regarding `CCOC(=O)NCCCCN(C(C)=O)n1cnc2c(SC)ncnc21`, the T/C is 100 % of control (dose: 12.5 mg/kg/injection, schedule: Q04DX002 (ip), vehicle: saline with Tween-80); 94 % of control (dose: 25.0 mg/kg/injection, schedule: Q04DX002 (ip), vehicle: saline with Tween-80); 97 % of control (dose: 50.0 mg/kg/injection, schedule: Q04DX002 (ip), vehicle: saline with Tween-80).

In the case of `O=C(O)c1c[nH]c2cc(Cl)ccc2c1=O`, the T/C was 90 % of control (dose: 100.0 mg/kg/injection, schedule: Q01DX001 (ip), vehicle: Klucel (hydroxypropylcellulose) (HPC)); 100 % of control under setting [7]; 101 % of control (dose: 200.0 mg/kg/injection, schedule: Q01DX001 (ip), vehicle: Klucel (hydroxypropylcellulose) (HPC)); 101 % of control and 105 % of control under setting [8]; 97 % of control (dose: 400.0 mg/kg/injection, schedule: Q01DX001 (ip), vehicle: Klucel (hydroxypropylcellulose) (HPC)); 100 % of control and 90 % of control under setting [9].

Take `CC1C(C)C1(Br)c1ccccc1` (stereo unspecified): the T/C under setting [13] was 91 % of control, the T/C under setting [14] was 101 % of control and the T/C under setting [15] was 96 % of control.

For the molecule `O=C(Nc1ccc(C2=NCCCN2)cc1)Nc1ccc(C2=NCCCN2)cc1`, the T/C runs as follows: (dose: 0.31 mg/kg/injection, schedule: Q01DX Z (ip), vehicle: saline) 94 % of control; (dose: 0.63 mg/kg/injection, schedule: Q01DX Z (ip), vehicle: saline) 110 % of control; (dose: 1.25 mg/kg/injection, schedule: Q01DX Z (ip), vehicle: saline) 114 % of control and 119 % of control; (dose: 2.5 mg/kg/injection, schedule: Q01DX Z (ip), vehicle: saline) 114 % of control; (dose: 4.4 mg/kg/injection, schedule: Q01DX Z (ip), vehicle: saline) 96 % of control.
